Here are results for 40 compounds from ChEMBL document CHEMBL1143583, “Anchor-GRIND: filling the gap between standard 3D QSAR and the GRid-INdependent descriptors” (J Med Chem, 2005).

Acetylcholinesterase, sequence (P22303 whole entry): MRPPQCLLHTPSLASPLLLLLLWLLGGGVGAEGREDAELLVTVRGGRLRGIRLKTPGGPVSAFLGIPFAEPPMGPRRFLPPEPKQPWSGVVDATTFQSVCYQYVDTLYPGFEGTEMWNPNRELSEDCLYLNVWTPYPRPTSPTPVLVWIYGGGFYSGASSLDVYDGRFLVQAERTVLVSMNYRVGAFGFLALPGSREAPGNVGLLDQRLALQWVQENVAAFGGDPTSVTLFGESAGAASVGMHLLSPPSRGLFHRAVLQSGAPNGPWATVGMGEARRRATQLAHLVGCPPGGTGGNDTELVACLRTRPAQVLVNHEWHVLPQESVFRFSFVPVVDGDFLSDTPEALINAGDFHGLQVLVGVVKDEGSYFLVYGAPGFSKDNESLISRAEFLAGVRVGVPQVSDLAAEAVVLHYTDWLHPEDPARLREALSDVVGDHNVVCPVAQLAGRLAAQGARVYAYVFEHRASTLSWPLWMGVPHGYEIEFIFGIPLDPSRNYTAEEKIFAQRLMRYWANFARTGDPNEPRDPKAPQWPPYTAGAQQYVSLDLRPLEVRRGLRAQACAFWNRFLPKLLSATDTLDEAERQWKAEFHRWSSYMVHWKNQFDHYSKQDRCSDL

The first assay has as its target Acetylcholinesterase (Homo sapiens, UniProt P22303). Description: Inhibitory concentration against Acetylcholinesterase; (range = 2-20 uM).
Settings: not given
Regarding `CCN(CC)CCN1CC(=O)N(CCc2ccccc2)CC1=O`, the IC50 was 20 µM.

In turn, `CCN(CC)CCCN1CC(=O)N(C2CC2)CC1=O` registered an IC50 of 20 µM.

For `CC1CCCCN1CCCN1CC(=O)N(CCc2ccc(F)cc2)CC1=O` (stereo not given), the IC50 stood at 20 µM.

As to `O=C1CN(CCN2CCCC2)C(=O)CN1CCCn1ccnc1`, the IC50 stood at 20 µM.

`CC(C)N(CCN1CC(=O)N(CCc2ccc(Cl)cc2Cl)CC1=O)C(C)C` came in with an IC50 of 20 µM.

`COc1ccc(CCN2CC(=O)N(CCc3ccccn3)CC2=O)cc1OC` had an IC50 of 20 µM.

`O=C1CN(CCN2CCOCC2)C(=O)CN1CCC(c1ccccc1)c1ccccc1` had an IC50 of 20 µM.

The next assay deals with Genome polyprotein (Hepatitis C virus genotype 1a (isolate 1) (HCV), UniProt P26664). In words: Inhibitory concentration against hepatitis C virus NS3 protease (IC50 spans 2.5 log units). Details: species or system Hepacivirus hominis. Conditions: read-out: Log 1/IC50 (converted).
Genome polyprotein, sequence (P26664 1027-1657 limits assumed): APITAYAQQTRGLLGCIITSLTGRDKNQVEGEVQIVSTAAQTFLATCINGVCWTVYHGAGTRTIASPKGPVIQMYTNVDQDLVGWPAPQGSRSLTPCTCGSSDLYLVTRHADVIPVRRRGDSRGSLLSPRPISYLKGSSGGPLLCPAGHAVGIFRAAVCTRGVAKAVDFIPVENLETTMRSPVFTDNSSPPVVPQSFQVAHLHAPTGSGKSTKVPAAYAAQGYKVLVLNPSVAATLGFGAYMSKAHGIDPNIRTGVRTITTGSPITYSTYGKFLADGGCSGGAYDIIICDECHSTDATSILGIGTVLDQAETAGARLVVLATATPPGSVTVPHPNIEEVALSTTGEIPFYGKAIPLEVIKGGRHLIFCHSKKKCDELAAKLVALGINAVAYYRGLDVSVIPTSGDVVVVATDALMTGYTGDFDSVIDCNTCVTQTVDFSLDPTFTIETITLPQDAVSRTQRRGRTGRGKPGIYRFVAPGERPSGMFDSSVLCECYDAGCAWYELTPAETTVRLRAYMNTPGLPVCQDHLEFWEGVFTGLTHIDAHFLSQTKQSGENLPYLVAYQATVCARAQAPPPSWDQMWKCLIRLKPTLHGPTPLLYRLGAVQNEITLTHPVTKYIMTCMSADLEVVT
As for `CC(=O)N[C@H](C(=O)N[C@H](C(=O)C1C[C@H](Oc2ccnc3cc(C(F)(F)F)ccc23)C[C@H]1C(=O)CC1(C(=O)O)CC1)C(C)C)C1CCCCC1` (stereo not given in full), the IC50 was 6.31 µM.

In the case of `CC(=O)N[C@H](C(=O)N[C@H](C(=O)C1C[C@H](O)C[C@H]1C(=O)CC1(C(=O)O)CC1)C(C)C)C1CCCCC1` (stereo not given in full), the IC50 was above 1000 µM.

In the case of `COc1ccc(-c2ccccc2O[C@H]2CC(C(=O)[C@@H](NC(=O)[C@@H](NC(C)=O)C3CCCCC3)C(C)C)[C@H](C(=O)CC3(C(=O)O)CC3)C2)cc1` (stereo not given in full), the IC50 is above 200 µM.

Regarding `CC(=O)N[C@H](C(=O)N[C@H](C(=O)C1C[C@H](Oc2ccc(F)cc2)C[C@H]1C(=O)CC1(C(=O)O)CC1)C(C)C)C1CCCCC1` (stereo not given in full), the IC50 was 100 µM.

On to `CC(=O)N[C@H](C(=O)N[C@H](C(=O)C1C[C@H](Oc2cccnc2)C[C@H]1C(=O)CC1(C(=O)O)CC1)C(C)C)C1CCCCC1` (stereo not given in full), for which the IC50 is 200 µM.

On to `CC(=O)N[C@H](C(=O)N[C@H](C(=O)C1C[C@H](Oc2ccnc3cc(Cl)ccc23)C[C@H]1C(=O)CC1(C(=O)O)CC1)C(C)C)C1CCCCC1` (stereo not given in full), for which the IC50 was 2 µM.

Regarding `CC(=O)N[C@H](C(=O)N[C@H](C(=O)C1C[C@H](Sc2ccnc3cc(C(F)(F)F)ccc23)C[C@H]1C(=O)CC1(C(=O)O)CC1)C(C)C)C1CCCCC1` (stereo not given in full), the IC50 was 10 µM.

Turning to `CC(=O)N[C@H](C(=O)N[C@H](C(=O)C1C[C@H](Oc2ccccc2)C[C@H]1C(=O)CC1(C(=O)O)CC1)C(C)C)C1CCCCC1` (stereo not given in full), the IC50 was 79.4 µM.

As for `CC(=O)N[C@H](C(=O)N[C@H](C(=O)C1C[C@H](Oc2ccnc3ccccc23)C[C@H]1C(=O)CC1(C(=O)O)CC1)C(C)C)C1CCCCC1` (stereo not given in full), the IC50 is 5.01 µM.

Consider `CC(=O)N[C@H](C(=O)N[C@H](C(=O)C1C[C@H](Oc2cccc(Br)c2)C[C@H]1C(=O)CC1(C(=O)O)CC1)C(C)C)C1CCCCC1` (stereo not given in full), for which the IC50 is 50.1 µM.

With `CC(=O)N[C@H](C(=O)N[C@H](C(=O)C1C[C@H](Sc2ccc(Br)cc2)C[C@H]1C(=O)CC1(C(=O)O)CC1)C(C)C)C1CCCCC1` (stereo not given in full), the IC50 is 39.8 µM.

`CC(=O)N[C@H](C(=O)N[C@H](C(=O)C1C[C@H](Oc2cccc3cccnc23)C[C@H]1C(=O)CC1(C(=O)O)CC1)C(C)C)C1CCCCC1` (stereo not given in full): the IC50 is 251 µM.

As for `CC(=O)N[C@H](C(=O)N[C@H](C(=O)C1C[C@H](Oc2ccccc2-c2ccc(C(=O)O)cc2)C[C@H]1C(=O)CC1(C(=O)O)CC1)C(C)C)C1CCCCC1` (stereo not given in full), the IC50 was above 200 µM.

Turning to `CC(=O)N[C@H](C(=O)N[C@H](C(=O)C1C[C@H](Oc2ccccc2Br)C[C@H]1C(=O)CC1(C(=O)O)CC1)C(C)C)C1CCCCC1` (stereo not given in full), the IC50 was 25.1 µM.

As to `CC(=O)N[C@H](C(=O)N[C@H](C(=O)C1C[C@H](Oc2cncc3ccccc23)C[C@H]1C(=O)CC1(C(=O)O)CC1)C(C)C)C1CCCCC1` (stereo not given in full), the IC50 is 3.98 µM.

As for `CC(=O)N[C@H](C(=O)N[C@H](C(=O)C1C[C@H](Oc2cccc(-c3cccc([N+](=O)[O-])c3)c2)C[C@H]1C(=O)CC1(C(=O)O)CC1)C(C)C)C1CCCCC1` (stereo not given in full), the IC50 was 6.31 µM.

For `CC(=O)N[C@H](C(=O)N[C@H](C(=O)C1C[C@H](Oc2ccc(-c3ccccc3)cc2)C[C@H]1C(=O)CC1(C(=O)O)CC1)C(C)C)C1CCCCC1` (stereo not given in full), the IC50 is 31.6 µM.

Take `CC(=O)N[C@H](C(=O)N[C@H](C(=O)C1C[C@H](Oc2ccncc2)C[C@H]1C(=O)CC1(C(=O)O)CC1)C(C)C)C1CCCCC1` (stereo not given in full): the IC50 is 158 µM.

For `CC(=O)N[C@H](C(=O)N[C@H](C(=O)C1C[C@H](Oc2ccc(Br)cc2)C[C@H]1C(=O)CC1(C(=O)O)CC1)C(C)C)C1CCCCC1` (stereo not given in full), the IC50 was 25.1 µM.

In the case of `CC(=O)N[C@H](C(=O)N[C@H](C(=O)C1C[C@H](Oc2cccc(N3CCOCC3)c2)C[C@H]1C(=O)CC1(C(=O)O)CC1)C(C)C)C1CCCCC1` (stereo not given in full), the IC50 is 31.6 µM.

Regarding `CC(=O)N[C@H](C(=O)N[C@H](C(=O)C1C[C@H](Oc2nc3ccccc3s2)C[C@H]1C(=O)CC1(C(=O)O)CC1)C(C)C)C1CCCCC1` (stereo not given in full), the IC50 is 20 µM.

As for `COc1ccc2c(O[C@H]3CC(C(=O)[C@@H](NC(=O)[C@@H](NC(C)=O)C4CCCCC4)C(C)C)[C@H](C(=O)CC4(C(=O)O)CC4)C3)ccnc2c1` (stereo not given in full), the IC50 is 0.794 µM.

On to `CC(=O)N[C@H](C(=O)N[C@H](C(=O)C1C[C@H](Oc2ccc(Cl)cc2)C[C@H]1C(=O)CC1(C(=O)O)CC1)C(C)C)C1CCCCC1` (stereo not given in full), for which the IC50 is 50.1 µM.

Turning to `CC(=O)N[C@H](C(=O)N[C@H](C(=O)C1C[C@H](Oc2ccc(I)cc2)C[C@H]1C(=O)CC1(C(=O)O)CC1)C(C)C)C1CCCCC1` (stereo not given in full), the IC50 is 10 µM.

With `COc1ccc2nccc(O[C@H]3CC(C(=O)[C@@H](NC(=O)[C@@H](NC(C)=O)C4CCCCC4)C(C)C)[C@H](C(=O)CC4(C(=O)O)CC4)C3)c2c1` (stereo not given in full), the IC50 was 15.8 µM.

On to `CC(=O)N[C@H](C(=O)N[C@H](C(=O)C1C[C@H](Sc2nc3ccccc3s2)C[C@H]1C(=O)CC1(C(=O)O)CC1)C(C)C)C1CCCCC1` (stereo not given in full), for which the IC50 was 20 µM.

Consider `CC(=O)N[C@H](C(=O)N[C@H](C(=O)C1C[C@H](Oc2cccnc2-c2ccsc2)C[C@H]1C(=O)CC1(C(=O)O)CC1)C(C)C)C1CCCCC1` (stereo not given in full), for which the IC50 was above 200 µM.

With `COc1ccc(-c2ccc(O[C@H]3CC(C(=O)[C@@H](NC(=O)[C@@H](NC(C)=O)C4CCCCC4)C(C)C)[C@H](C(=O)CC4(C(=O)O)CC4)C3)cc2)cc1` (stereo not given in full), the IC50 is 31.6 µM.

For `CC(=O)N[C@H](C(=O)N[C@H](C(=O)C1C[C@H](Oc2ccccc2-c2ccccc2)C[C@H]1C(=O)CC1(C(=O)O)CC1)C(C)C)C1CCCCC1` (stereo not given in full), the IC50 is above 200 µM.

On to `CC(=O)N[C@H](C(=O)N[C@H](C(=O)C1C[C@H](Oc2ccc(Cl)c3cccnc23)C[C@H]1C(=O)CC1(C(=O)O)CC1)C(C)C)C1CCCCC1` (stereo not given in full), for which the IC50 is 100 µM.

On to `CC(=O)N[C@H](C(=O)N[C@H](C(=O)C1C[C@H](Oc2cccc(-c3ccccc3)c2)C[C@H]1C(=O)CC1(C(=O)O)CC1)C(C)C)C1CCCCC1` (stereo not given in full), for which the IC50 was 6.31 µM.

With `CC(=O)N[C@H](C(=O)N[C@H](C(=O)C1C[C@H](Oc2nccc3ccccc23)C[C@H]1C(=O)CC1(C(=O)O)CC1)C(C)C)C1CCCCC1` (stereo not given in full), the IC50 is 7.94 µM.

Consider `CC(=O)Nc1cccc(-c2cccc(O[C@H]3CC(C(=O)[C@@H](NC(=O)[C@@H](NC(C)=O)C4CCCCC4)C(C)C)[C@H](C(=O)CC4(C(=O)O)CC4)C3)c2)c1` (stereo not given in full), for which the IC50 is 6.31 µM.
